Measured values reported in patent US20060167013A1, “Inhibitors for excessive accumulation of sodium ion in cells” (priority 2002, published 2006).

System: ischemic and reperfused hearts
Assay: Ischemia and reperfusion of the isolated rat heart perfused by the Langendorff method: ventricular total sodium content and recovery in contractile tension
Details: for Sodium Content: 45 min ischemia, 30 min reperfusion, atomic absorption; for Recovery in Contractile Tension: at 30 min after reperfusion, relative to tension at beginning of experiment; for increase of ventricular sodium content induced by ischemia and reperfusion (result in words): added in the reperfusion solution
Procedure: The heart of the rat was excised and perfused with Krebs buffer solution (in mM: NaCl 119, KCl 4.6, MgSO4.7H2O 1.2, CaCl2·2H2O 1.3, NaHCO3 25, KH2PO4 1.2, glucose 11; pH 7.4, 37° C.) according to the Langendorff method. A thread was attached to the apex of the heart, and then the end was connected to a tension transducer to determine contractile tension. The preparation was stabilized, and then myocardial ischemia was induced by reducing a perfusion pressure (for 45 minutes). After reperfusion for 30 min, the heart was liquefied in nitric acid, and ventricular total sodium content was determined by atomic absorption analysis. Contractile tension was measured during the experiment, and a recovery rate in the contractile tension at 30 min after the reperfusion, relative to the contractile tension at the beginning of the experiment, was used as an index of cardiac contractility.

| Compound | Sodium Content (10^−3 M) [µmol/g] | Recovery in Contractile Tension (10^−3 M) [%] | Sodium Content (10^−4 M) [µmol/g] | Recovery in Contractile Tension (10^−4 M) [%] | Sodium Content (10^−5 M) [µmol/g] | Recovery in Contractile Tension (10^−5 M) [%] | increase of ventricular sodium content induced by ischemia and reperfusion (result in words) | Sodium Content (10^−6 M in reperfusion solution) [µmol/g] | Recovery in Contractile Tension (10^−6 M) [%] | Sodium Content (10^−7 M in reperfusion solution) [µmol/g] | Recovery in Contractile Tension (10^−7 M) [%] | Sodium Content (10^−8 M in reperfusion solution) [µmol/g] | Recovery in Contractile Tension (10^−8 M) [%] | Sodium Content (10^−9 M in reperfusion solution) [µmol/g] | Recovery in Contractile Tension (10^−9 M) [%] |
| --- | --- | --- | --- | --- | --- | --- | --- | --- | --- | --- | --- | --- | --- | --- | --- |
| N=C(N)NC(=O)c1nc(Cl)c(N)nc1N [Amiloride, reference compound] | 64.8 ± 3.7 | 59.0 ± 4.7 | 71.8 ± 3.3 | 45.4 ± 3.8 | 77.9 ± 3.9 | 33.3 ± 7.2 | no effect |  |  |  |  |  |  |  |  |
| Cc1ccc(N2CCNCC2)c(S(=O)(=O)O)c1.O [MCC-135, 5-methyl-2-(1-piperazinyl)benzenesulfonic acid monohydrate] |  |  |  |  |  |  | suppressed | 59.9 ± 2.3 | 79.4 ± 4.7 | 62.2 ± 0.6 | 68.4 ± 3.2 | 68.7 ± 3.7 | 49.1 ± 2.9 | 68.4 ± 6.2 | 40.0 ± 4.9 |
